pIC50: −log10 of the molar value.
What was measured:
Format in all cases: cell-based
[1] = biological target: T1, xCT (system xc–, cystine-glutamate exchanger) (Rattus norvegicus, UniProt A0A8I6AB70); test: radiolabeled substrate uptake in Na+-free buffer, transfected versus non-transfected CHO cells
T1 construct: gene Slc7a11; with 4F2hc (Slc3a2)

[2] = biological target: T2, xCT (system xc–, cystine-glutamate exchanger) (Mus musculus, UniProt Q9WTR6); test: radiolabeled substrate uptake in Na+-free buffer, knockout control
T2 construct: gene Slc7a11; native exchanger in cultured astrocytes and spinal cord crude synaptosomes, wild-type versus xCT–/–; with 4F2hc (Slc3a2)
T2 sequence (Q9WTR6 1-502): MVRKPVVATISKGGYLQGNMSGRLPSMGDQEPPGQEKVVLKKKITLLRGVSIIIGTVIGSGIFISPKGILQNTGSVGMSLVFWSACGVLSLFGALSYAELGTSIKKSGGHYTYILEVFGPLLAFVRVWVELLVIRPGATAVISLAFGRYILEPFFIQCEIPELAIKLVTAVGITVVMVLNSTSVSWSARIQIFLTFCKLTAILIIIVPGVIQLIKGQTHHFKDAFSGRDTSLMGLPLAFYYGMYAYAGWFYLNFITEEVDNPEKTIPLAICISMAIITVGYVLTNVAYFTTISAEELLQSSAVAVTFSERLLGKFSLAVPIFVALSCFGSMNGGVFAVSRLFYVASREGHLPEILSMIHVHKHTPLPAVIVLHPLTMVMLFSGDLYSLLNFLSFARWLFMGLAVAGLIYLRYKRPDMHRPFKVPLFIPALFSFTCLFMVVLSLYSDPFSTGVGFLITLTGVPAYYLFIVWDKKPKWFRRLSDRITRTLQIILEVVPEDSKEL
T2 sequence (P10852 1-526 partner): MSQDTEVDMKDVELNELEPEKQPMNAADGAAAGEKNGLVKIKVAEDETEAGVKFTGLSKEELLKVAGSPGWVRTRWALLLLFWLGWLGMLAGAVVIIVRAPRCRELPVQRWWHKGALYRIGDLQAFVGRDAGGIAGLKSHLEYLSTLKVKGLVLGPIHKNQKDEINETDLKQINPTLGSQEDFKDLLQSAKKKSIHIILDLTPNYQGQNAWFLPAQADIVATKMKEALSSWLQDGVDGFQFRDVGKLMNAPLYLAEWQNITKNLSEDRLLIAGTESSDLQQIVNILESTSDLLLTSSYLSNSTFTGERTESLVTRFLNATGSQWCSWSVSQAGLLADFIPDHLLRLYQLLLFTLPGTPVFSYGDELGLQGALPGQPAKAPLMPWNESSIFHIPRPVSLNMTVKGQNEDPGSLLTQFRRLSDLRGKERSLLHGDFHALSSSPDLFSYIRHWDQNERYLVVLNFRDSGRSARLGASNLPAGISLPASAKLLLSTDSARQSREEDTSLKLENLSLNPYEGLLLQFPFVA

[3] = biological target: T1, xCT (system xc–, cystine-glutamate exchanger); test: inhibition of [3H]-L-glutamate uptake in Na+-free buffer, CHO-xCT cells, concentration-response

T1 sequence (A0A8I6AB70 1-502): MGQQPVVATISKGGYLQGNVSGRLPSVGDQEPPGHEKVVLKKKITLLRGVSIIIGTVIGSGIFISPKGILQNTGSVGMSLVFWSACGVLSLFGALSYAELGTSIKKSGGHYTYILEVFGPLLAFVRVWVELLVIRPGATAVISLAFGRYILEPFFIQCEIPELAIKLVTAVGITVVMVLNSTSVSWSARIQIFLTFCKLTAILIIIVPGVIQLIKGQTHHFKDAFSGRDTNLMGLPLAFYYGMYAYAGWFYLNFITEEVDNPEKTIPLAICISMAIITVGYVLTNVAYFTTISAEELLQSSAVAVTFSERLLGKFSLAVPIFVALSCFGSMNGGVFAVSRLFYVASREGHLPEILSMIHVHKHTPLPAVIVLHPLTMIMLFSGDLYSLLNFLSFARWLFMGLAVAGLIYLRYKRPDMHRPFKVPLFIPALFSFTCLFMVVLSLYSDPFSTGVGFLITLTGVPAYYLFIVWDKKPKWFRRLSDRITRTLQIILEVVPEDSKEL

SMILES	radiolabeled substrate uptake in Na+-free buffer, transfected versus non-transfe [1]	radiolabeled substrate uptake in Na+-free buffer, knockout control [2]	pIC50 [3]
N[C@@H](CCC(=O)O)C(=O)O [L-glutamate]	[^3H]-L-glutamate uptake measured in the transfected cells was significantly higher as compared to non-transfected cells	the uptake of [^3H]-L-glutamate was barely detectable in astrocytes derived from the transgenic mice lacking xCT	–
N[C@@H](CCS(=O)(=O)O)C(=O)O [HCA]	–	–	5.24

From paper PMC8793334, “Validation of a System xc^– Functional Assay in Cultured Astrocytes and Nervous Tissue Samples” (Frontiers in Cellular Neuroscience, 2022)
